The values that follow come from ChEMBL document CHEMBL4725370, “Discovery of Proteolysis-Targeting Chimera Molecules that Selectively Degrade the IRAK3 Pseudokinase” (J Med Chem, 2020).

A word on the inhibition: it is the drop in the measured response relative to a control, in per cent. A lower inhibition goes with a weak effect. As a reminder, the pIC50 is the negative decadic logarithm of the IC50, by convention in mol/L. By pKd is commonly meant the Kd on a negative log10 scale, so that one unit is a factor of ten.

pIC50, pKd: −log10 of the molar value. Active and inactive are the calls of the source. The calls are words filed in the database; no cut-off is given here.

The target in assay [1] is Serine/threonine-protein kinase haspin (Homo sapiens) (UniProt Q8TF76). In words: Inhibition of GSG2 (unknown origin) at 0.1 uM relative to control.
Assay [2] has as its system THP-1. In words: Selectivity ratio of Kd(app) for displacement of polymer supported probe 25 binding to CDK8 in human THP-1 cell lysates to Kd(app) for displacement of polymer supported probe 25 binding to IRAK3 in human THP-1 cell lysates.
Assay [3] deals with Cereblon/Ikaros (Homo sapiens) (UniProt Q96SW2+Q13422). Kind of assay: Protac activity at CRBN/IKZF1 in LPS-induced human THP1 cells assessed as induction of IKZF1 degradation at 0.1 uM measured after 6 hrs by HPLC-MS based global proteomic analysis. In kind it is cell-based. The note with it: THP-1.
Assay [4] addresses Protein cereblon/Eukaryotic peptide chain release factor GTP-binding subunit ERF3A (Homo sapiens) (UniProt Q96SW2+P15170). Kind of assay: Protac activity at CRBN/GSPT1 in LPS-induced human THP1 cells assessed as induction of GSPT1 degradation at 0.1 uM measured after 6 hrs by HPLC-MS based global proteomic analysis. In kind it is cell-based. The note with it: THP-1.
In assay [5] the target is T1, Protein cereblon/Interleukin-1 receptor-associated kinase 3 (Homo sapiens, UniProt Q9Y616+Q96SW2). In words: Protac activity at CRBN/IRAK3 in human THP1 cells assessed as induction of IRAK3 degradation at 0.1 uM preincubated for 16 hrs followed by compound washout and measured after 24 hrs by Western blot analysis. The note with it: THP-1. In kind it is cell-based. Background: Immunoblotting shows a protein as a band on a membrane.

The target of assay [6] is BDNF/NT-3 growth factors receptor (Homo sapiens) (UniProt Q16620). In words: Inhibition of NTRK2 (unknown origin) at 0.1 uM relative to control.
The target in assay [7] is T1, Protein cereblon/Interleukin-1 receptor-associated kinase 3. In words: Protac activity at CRBN/IRAK3 in human THP1 cells assessed as induction of IRAK3 degradation at 0.1 uM measured after 6 hrs in presence of 10 uM thalidomide by Western blot analysis. In kind it is cell-based. The conditions noted are these: THP-1.
Assay [8] has as its target T2, Interleukin-1 receptor-associated kinase 3 (Homo sapiens, UniProt Q9Y616).
T2 sequence (Q9Y616 whole entry): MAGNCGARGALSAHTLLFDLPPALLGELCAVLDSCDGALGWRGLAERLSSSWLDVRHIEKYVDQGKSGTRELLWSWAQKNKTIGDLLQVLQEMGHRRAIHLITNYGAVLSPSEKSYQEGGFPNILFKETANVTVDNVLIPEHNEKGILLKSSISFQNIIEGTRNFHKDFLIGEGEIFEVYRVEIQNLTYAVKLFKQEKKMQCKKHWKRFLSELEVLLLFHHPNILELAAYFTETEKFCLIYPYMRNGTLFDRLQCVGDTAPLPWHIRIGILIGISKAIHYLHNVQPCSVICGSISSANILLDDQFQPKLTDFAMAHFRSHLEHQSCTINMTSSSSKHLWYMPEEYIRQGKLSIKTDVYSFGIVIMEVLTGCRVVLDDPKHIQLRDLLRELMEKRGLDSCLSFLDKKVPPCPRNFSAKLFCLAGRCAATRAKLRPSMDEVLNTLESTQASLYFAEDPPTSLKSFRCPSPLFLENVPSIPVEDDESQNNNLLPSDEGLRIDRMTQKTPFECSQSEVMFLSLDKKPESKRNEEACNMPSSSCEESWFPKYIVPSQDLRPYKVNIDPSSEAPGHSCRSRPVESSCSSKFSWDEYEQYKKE
Kind of assay: Inhibition of kinase tracer 236 binding to recombinant human full-length GST-tagged IRAK3 expressed in insect cells by Lanthascreen Eu kinase binding assay. For orientation: TR-FRET usually uses a lanthanide donor and a delayed reading to cut background.

For assay [9], the target named is Delta(24)-sterol reductase (Homo sapiens) (UniProt Q15392). In words: Displacement of polymer supported probe 25 binding to DHCR24 in human THP-1 cell lysates at 30 uM preincubated for 45 mins under shaking condition followed by probe addition and measured after 30 mins by mass spectrometry based chemoproteomic analysis relative to control. In kind it is subcellular.

The target of assay [10] is CDK8/Cyclin C (Homo sapiens) (UniProt P49336+P24863). Kind of assay: Inhibition of CDK8/cyclin C (unknown origin) at 0.1 uM relative to control. In kind it is protein-complex assay.
Assay [11] deals with THP-1. In words: Selectivity ratio of Kd(app) for displacement of polymer supported probe 25 binding to IRAK4 in human THP-1 cell lysates to Kd(app) for displacement of polymer supported probe 25 binding to IRAK3 in human THP-1 cell lysates.
Assay [12] addresses Cyclin-C/Cyclin-dependent kinase 19 (Homo sapiens, UniProt P24863+Q9BWU1). In words: Inhibition of CDK11/cyclin C (unknown origin). In kind it is protein-complex assay.
For assay [13], the target named is T3, Serine/threonine-protein kinase haspin (Homo sapiens, UniProt Q8TF76).
T3 sequence (Q8TF76 whole entry): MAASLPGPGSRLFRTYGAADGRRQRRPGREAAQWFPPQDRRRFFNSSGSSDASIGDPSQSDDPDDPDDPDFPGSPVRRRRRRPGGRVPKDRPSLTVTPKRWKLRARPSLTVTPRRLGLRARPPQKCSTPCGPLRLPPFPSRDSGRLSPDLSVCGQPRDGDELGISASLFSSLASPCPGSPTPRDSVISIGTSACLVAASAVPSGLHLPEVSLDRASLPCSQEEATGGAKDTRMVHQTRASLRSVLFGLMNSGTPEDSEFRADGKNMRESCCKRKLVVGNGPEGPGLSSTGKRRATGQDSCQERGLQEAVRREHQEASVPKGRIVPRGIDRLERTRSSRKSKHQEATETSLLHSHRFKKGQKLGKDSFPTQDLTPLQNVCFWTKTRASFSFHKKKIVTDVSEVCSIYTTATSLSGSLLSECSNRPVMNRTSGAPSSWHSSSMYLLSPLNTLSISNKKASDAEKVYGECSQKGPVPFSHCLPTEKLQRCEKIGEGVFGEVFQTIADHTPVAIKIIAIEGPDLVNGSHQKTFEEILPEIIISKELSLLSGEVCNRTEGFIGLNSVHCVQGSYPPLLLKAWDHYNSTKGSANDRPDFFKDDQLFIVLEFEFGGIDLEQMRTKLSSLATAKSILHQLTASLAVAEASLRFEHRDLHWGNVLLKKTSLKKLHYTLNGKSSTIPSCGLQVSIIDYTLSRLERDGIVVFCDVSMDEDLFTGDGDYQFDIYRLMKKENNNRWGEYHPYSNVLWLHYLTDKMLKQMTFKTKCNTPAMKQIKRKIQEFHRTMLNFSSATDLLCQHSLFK
Kind of assay: Displacement of polymer supported probe 25 binding to GSG2 in human THP-1 cell lysates preincubated for 45 mins under shaking condition followed by probe addition and measured after 30 mins by mass spectrometry based chemoproteomic analysis. In kind it is subcellular. The note with it: read-out: Kd(app).

Assay [14] concerns the target Protein cereblon (Homo sapiens, UniProt Q96SW2). Kind of assay: Inhibition of CRBN (unknown origin).
In assay [15] the target is T1, Protein cereblon/Interleukin-1 receptor-associated kinase 3. In words: Protac activity at CRBN/IRAK3 in LPS-induced human THP1 cells assessed as induction of IRAK3 degradation at 0.1 uM measured after 6 hrs by HPLC-MS based global proteomic analysis relative to control. In kind it is cell-based. The note with it: THP-1.
In assay [16] the target is Protein cereblon/Delta(24)-sterol reductase (Homo sapiens) (UniProt Q15392+Q96SW2). Kind of assay: Protac activity at CRBN/DHCR24 in LPS-induced human THP1 cells assessed as induction of DHCR24 degradation at 0.1 uM measured after 6 hrs by HPLC-MS based global proteomic analysis relative to control. In kind it is cell-based. The conditions noted are these: THP-1.
Chain of Protein cereblon/Delta(24)-sterol reductase (Homo sapiens) (Q15392 whole entry, looked up): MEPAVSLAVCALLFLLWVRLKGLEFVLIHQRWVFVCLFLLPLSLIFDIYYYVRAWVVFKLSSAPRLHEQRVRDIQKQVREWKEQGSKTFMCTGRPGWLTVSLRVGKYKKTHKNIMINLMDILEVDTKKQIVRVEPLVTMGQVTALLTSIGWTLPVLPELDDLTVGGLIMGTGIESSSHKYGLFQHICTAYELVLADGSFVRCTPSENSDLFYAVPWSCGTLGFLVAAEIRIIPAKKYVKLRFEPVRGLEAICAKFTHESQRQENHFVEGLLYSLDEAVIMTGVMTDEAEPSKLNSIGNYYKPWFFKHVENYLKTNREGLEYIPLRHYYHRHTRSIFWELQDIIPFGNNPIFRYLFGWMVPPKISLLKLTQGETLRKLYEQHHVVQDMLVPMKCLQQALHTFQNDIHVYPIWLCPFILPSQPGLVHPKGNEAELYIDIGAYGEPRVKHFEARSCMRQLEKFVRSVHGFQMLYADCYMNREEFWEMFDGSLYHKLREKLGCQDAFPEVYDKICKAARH
Chain of Protein cereblon/Delta(24)-sterol reductase (Homo sapiens) (Q96SW2 whole entry, looked up): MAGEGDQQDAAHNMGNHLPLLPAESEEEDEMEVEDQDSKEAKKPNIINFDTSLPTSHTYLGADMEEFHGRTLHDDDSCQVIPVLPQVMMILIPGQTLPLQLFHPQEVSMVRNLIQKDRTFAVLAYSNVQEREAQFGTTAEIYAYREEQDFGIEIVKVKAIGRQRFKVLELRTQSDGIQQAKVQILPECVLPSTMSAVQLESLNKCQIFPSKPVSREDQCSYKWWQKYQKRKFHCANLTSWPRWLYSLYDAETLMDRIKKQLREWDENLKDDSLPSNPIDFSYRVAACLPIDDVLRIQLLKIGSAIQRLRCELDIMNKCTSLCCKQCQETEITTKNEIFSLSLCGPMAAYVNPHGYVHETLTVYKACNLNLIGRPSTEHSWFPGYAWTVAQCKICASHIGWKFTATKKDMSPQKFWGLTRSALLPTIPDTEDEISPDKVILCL

T1 sequence (Q96SW2 whole entry, looked up, one chain of several): as the sequence (Q96SW2 whole entry, looked up) above
Chain of Delta(24)-sterol reductase (Homo sapiens) (Q15392 whole entry): as the sequence (Q15392 whole entry, looked up) above
Chain of Protein cereblon/Eukaryotic peptide chain release factor GTP-binding subunit ERF3A (Homo sapiens) (P15170 whole entry, looked up): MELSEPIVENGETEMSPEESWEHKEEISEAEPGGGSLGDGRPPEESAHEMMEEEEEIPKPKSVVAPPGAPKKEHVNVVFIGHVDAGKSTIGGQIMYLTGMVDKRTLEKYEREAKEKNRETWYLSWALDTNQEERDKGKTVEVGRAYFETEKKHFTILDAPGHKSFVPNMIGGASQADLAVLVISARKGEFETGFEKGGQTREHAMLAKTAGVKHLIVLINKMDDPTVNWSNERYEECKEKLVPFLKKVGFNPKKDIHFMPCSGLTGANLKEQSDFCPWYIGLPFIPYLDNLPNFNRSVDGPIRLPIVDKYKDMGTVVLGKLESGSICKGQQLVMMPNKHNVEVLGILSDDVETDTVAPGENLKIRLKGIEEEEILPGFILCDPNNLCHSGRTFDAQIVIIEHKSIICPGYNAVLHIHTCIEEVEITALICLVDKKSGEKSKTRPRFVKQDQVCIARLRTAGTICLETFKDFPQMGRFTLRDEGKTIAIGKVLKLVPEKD
Chain of Protein cereblon/Eukaryotic peptide chain release factor GTP-binding subunit ERF3A (Homo sapiens) (Q96SW2 whole entry, looked up): as the sequence (Q96SW2 whole entry, looked up) above
Chain of Protein cereblon (Q96SW2 whole entry): as the sequence (Q96SW2 whole entry, looked up) above
Chain of Cyclin-C/Cyclin-dependent kinase 19 (Q9BWU1 whole entry): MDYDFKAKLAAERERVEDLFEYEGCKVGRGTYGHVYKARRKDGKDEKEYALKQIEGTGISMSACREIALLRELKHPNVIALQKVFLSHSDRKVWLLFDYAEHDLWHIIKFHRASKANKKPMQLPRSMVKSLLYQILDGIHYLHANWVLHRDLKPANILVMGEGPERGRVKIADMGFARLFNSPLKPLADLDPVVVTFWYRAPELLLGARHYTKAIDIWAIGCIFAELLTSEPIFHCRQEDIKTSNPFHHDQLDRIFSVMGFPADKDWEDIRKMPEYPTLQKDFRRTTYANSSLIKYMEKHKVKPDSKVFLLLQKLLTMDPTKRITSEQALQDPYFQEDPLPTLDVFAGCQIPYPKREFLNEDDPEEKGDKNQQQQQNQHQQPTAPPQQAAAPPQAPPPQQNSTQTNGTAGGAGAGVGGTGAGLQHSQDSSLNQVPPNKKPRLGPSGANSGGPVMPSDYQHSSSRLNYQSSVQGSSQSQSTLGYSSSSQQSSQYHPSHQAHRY
Chain of Cyclin-C/Cyclin-dependent kinase 19 (P24863 whole entry): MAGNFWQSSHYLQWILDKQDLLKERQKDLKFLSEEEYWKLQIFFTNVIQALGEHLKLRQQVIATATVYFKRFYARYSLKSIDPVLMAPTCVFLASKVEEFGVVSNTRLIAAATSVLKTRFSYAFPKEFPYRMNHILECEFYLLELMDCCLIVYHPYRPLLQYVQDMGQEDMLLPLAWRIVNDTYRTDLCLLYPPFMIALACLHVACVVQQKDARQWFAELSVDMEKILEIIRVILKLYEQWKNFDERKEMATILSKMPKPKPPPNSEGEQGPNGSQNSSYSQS
Chain of BDNF/NT-3 growth factors receptor (Homo sapiens) (Q16620 32-822 limits assumed): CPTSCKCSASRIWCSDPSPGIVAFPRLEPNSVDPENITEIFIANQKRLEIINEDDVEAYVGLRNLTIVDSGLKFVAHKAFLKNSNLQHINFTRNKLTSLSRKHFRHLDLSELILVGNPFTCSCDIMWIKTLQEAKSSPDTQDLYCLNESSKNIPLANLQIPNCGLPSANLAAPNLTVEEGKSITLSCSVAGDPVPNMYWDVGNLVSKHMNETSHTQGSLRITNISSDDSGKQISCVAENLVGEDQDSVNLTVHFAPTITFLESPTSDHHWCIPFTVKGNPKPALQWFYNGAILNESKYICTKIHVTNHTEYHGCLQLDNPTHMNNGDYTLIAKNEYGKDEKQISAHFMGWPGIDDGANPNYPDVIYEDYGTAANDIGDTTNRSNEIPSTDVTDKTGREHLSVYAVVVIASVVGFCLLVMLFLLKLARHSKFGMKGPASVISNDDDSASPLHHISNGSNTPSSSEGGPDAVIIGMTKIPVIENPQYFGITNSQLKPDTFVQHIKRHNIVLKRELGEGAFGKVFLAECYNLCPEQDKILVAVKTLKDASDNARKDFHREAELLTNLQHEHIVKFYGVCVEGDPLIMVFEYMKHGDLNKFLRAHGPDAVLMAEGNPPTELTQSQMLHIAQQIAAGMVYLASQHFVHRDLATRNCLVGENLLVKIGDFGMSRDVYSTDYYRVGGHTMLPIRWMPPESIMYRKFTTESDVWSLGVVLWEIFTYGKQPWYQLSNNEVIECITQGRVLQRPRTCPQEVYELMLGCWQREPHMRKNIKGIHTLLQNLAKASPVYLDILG

As to `CC(C)c1ccn2ncnc(N[C@H]3CC[C@@H](N4CCN(C(=O)CCC(=O)N5CCC(CCN6CCN(c7ccc8c(c7)C(=O)N(C7CCC(=O)NC7=O)C8=O)CC6)CC5)CC4)CC3)c12` (stereo partly specified), the inhibition was 57% in [1], 45% in [6], less than 40% in [9] and 69% in assay [10]. Further, the Selectivity ratio in assay [2] worked out at 41; in [11] it was 105. Moreover, the outcome in assay [3], in [4], in assay [5] and in assay [7] was inactive. In addition, the results for the pIC50 in [8], in assay [12] and in assay [14] were 8.30, 7.80 and 6.34, respectively. The negative-log Kd (pKd) in assay [13] is 6.11. Besides, the fold change (FC) in assay [15] was -1.8; in [16], -1.5.
